From patent US20110052720A1 (priority 2007, published 2011)

Assay: Reversal of a formed copper phosphite precipitate by an added agent (Example 1)
Type: physicochemical
Conditions: precipitate from 0.6 g/l Cu(OH)2, 14.4 g/l KH2PO3, 1 g/l K2CO3, pH 5.5; chelators 10 mM, sodium lignosulfonate 6 g/l (48 hours of stirring)
From the text: Copper phosphite precipitate was formed by combining 0.6 g/l of Cu(OH)2 and 14.4 g/l of KH2PO3 in the presence of 1 g/l of K2CO3 to ensure pH 5.5 in demineralised water.

SMILES: O=C([O-])CN(CCN(CC(=O)[O-])CC(=O)O)CC(=O)O.[Na+].[Na+] [disodium EDTA]
- Effect of afterwards addition on copper phosphite precipitate: immediately disappeared
